# Results: patent publication US20130150430A1, “Methods for Impairing the P53/HDM2 Auto-Regulatory Loop in Multiple Myeloma Development Using mIR-192, mIR-194 and mIR-215” (THE OHIO STATE UNIVERSITY, priority 2011, published 2013)
# Test system: miR-192 and miR-194 in WT TP53 MM cell lines
# Assay: qRT-PCR of miRNAs after demethylation agent
# Type: cell-based, human
# Details: 10 μM, 3 days, vs DMSO
compound,measurement,value
Nc1ncn([C@@H]2O[C@H](CO)[C@@H](O)[C@H]2O)c(=O)n1 [Azacytidine],expression of miR-194-2-192 cluster miRNAs,increased
